According to patent publication US11713327B2, “Heteroaryl heterocyclyl compounds for the treatment of autoimmune disease” (Hoffmann-La Roche Inc., priority 2018, dated 2023):

What was measured:
hERG K+ channels = hERG K+ channels (Homo sapiens (Human), UniProt Q12809); assay: hERG channel inhibition assay (patch-clamp, CHOhERG cells); type: cell-based; settings: for safety window (hERG IC20/TLR7/8/9 IC50): compared to the compounds of this invention; for hERG IC20/TLR7 IC50 / hERG IC20/TLR9 IC50: safety ratio
Sequence of hERG K+ channels (Q12809 whole entry): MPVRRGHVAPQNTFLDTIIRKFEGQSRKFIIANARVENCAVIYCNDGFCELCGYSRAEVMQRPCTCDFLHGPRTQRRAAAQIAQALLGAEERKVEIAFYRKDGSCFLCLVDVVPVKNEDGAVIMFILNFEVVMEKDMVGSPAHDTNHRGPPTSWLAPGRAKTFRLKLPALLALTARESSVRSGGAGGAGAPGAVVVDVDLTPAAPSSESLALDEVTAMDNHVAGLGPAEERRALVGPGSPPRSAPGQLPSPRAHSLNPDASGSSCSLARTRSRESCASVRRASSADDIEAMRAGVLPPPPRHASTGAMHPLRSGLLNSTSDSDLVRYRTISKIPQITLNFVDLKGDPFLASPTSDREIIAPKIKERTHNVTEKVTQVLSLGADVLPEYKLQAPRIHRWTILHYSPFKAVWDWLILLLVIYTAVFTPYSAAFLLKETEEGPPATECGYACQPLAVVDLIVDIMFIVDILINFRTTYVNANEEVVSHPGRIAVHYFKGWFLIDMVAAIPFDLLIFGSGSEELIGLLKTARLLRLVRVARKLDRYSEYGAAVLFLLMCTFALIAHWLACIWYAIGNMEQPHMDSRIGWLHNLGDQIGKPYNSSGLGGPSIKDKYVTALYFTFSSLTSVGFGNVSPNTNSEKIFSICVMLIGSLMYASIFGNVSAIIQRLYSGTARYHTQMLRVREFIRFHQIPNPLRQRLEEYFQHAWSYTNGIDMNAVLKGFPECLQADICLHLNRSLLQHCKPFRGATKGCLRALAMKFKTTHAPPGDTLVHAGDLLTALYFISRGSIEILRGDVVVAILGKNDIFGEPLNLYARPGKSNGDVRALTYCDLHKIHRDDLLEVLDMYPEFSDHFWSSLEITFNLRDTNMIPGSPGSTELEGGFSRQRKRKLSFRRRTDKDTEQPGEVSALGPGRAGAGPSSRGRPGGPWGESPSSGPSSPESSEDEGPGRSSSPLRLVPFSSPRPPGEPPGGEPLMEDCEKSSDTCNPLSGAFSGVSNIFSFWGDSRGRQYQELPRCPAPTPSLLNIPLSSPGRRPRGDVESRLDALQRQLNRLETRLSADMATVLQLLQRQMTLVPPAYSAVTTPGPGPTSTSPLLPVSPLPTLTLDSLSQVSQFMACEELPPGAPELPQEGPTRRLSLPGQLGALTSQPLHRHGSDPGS
Method: hERG Channel Inhibition Assay:
The hERG K^+ channels were cloned in humans and stably expressed in a CHO (Chinese hamster ovary) cell line. CHOhERG cells were used for patch-clamp (voltage-clamp, whole-cell) experiments. Cells were stimulated by a voltage pattern to activate hERG channels and conduct IKhERG currents (rapid delayed outward rectifier potassium current of the hERG channel). After the cells were stabilized for a few minutes, the amplitude and kinetics of IKhERG were recorded at a stimulation frequency of 0.1 Hz (6 bpm). Thereafter, the test compound was added to the preparation at increasing concentrations. For each concentration, an attempt was made to reach a steady-state effect, usually, this was achieved within 3-10 min at which time the next highest concentration was applied. The amplitude and kinetics of IKhERG are recorded in each concentration of the drug which were compared to the control values (taken as 100%). (references: Redfern W S, Carlsson L, Davis A S, Lynch W G, MacKenzie I, Palethorpe S, Siegl P K, Strang I, Sullivan A T, Wallis R, Camm A J, Hammond T G. 2003; Relationships between preclinical cardiac electrophysiology, clinical QT interval prolongation and torsade de pointes for a broad range of drugs: evidence for a provisional safety margin in drug development. Cardiovasc. Res. 58:32-45, Sanguinetti M C, Tristani-Firouzi M. 2006; hERG potassium channels and cardiac arrhythmia. Nature 440:463-469, Webster R, Leishman D, Walker D. 2002; Towards a drug concentration effect relationship for QT prolongation and torsades de pointes. Curr. Opin. Drug Discov. Devel. 5:116-26).

[1] = Human microsome stability assay; type: in vitro ADME; settings: 1 μM test compound, 0.5 mg/mL liver microsomal protein
Method: Human Microsome Stability Assay
The human microsomal stability assay is used for early assessment of metabolic stability of a test compound in human liver microsomes.
Human liver microsomes (Cat. NO.: 452117, Corning, USA; Cat. NO.: H2610, Xenotech, USA) were preincubated with test compound for 10 minutes at 37° C. in 100 mM potassium phosphate buffer, pH 7.4. The reactions were initiated by adding NADPH regenerating system. The final incubation mixtures contained 1 μM test compound, 0.5 mg/mL liver microsomal protein, 1 mM MgCl2, 1 mM NADP, 1 unit/mL isocitric dehydrogenase and 6 mM isocitric acid in 100 mM potassium phosphate buffer, pH 7.4. After incubation times of 0, 3, 6, 9, 15 and 30 minutes at 37° C., 300 μL of cold acetonitrile (including internal standard) was added to 100 μL incubation mixture to terminate the reaction. Following precipitation and centrifugation, the amount of compound remaining in the samples were determined by LC-MS/MS. Controls of no NADPH regenerating system at zero and 30 minutes were also prepared and analyzed.

Compound: C[C@@H]1CN(c2ccc(C#N)c3ncccc23)C[C@H](CN2CCN(c3ccncc3)CC2)O1 [ER-888286]
- safety window (hERG IC20/TLR7/8/9 IC50) (hERG K+ channels): much narrower safety window
- hERG IC20/TLR7 IC50 (hERG K+ channels): 0.3
- hERG IC20/TLR9 IC50 (hERG K+ channels): 0.2

Compound: [2H]c1nc2c(C#N)ccc(N3C[C@H](CN4CCN(c5ccc6c(n5)CN[C@H]6C)CC4)O[C@H](C)C3)c2nc1[2H] [Example 96, 2,3-dideuterio-8-[(2R,6S)-2-methyl-6-[[4-[(5S)-5-methyl-6,7-dihydro-5H-pyrrolo[3,4-b]pyridin-2-yl]piperazin-1-yl]methyl]morpholin-4-yl]quinoxaline-5-carbonitrile]
- Clearance of Human microsome [1]: 6.23 mL/min/kg

Compound: C[C@@H]1CN(c2ccc(C#N)c3ncccc23)C[C@H](CN2CCN(c3ccccn3)CC2)O1 [ER-888285]
- safety window (hERG IC20/TLR7/8/9 IC50) (hERG K+ channels): much narrower safety window
- hERG IC20/TLR7 IC50 (hERG K+ channels): 8.4
- hERG IC20/TLR9 IC50 (hERG K+ channels): 0.5

Compound: C[C@@H]1CN(c2ccc(C#N)c3ncccc23)C[C@H](CN2CC3(C2)CN(c2cnc4c(n2)CCNC4)CCO3)O1 [Example 50, 5-[(2R,6S)-2-methyl-6-[[8-(5,6,7,8-tetrahydropyrido[3,4-b]pyrazin-2-yl)-5-oxa-2,8-diazaspiro[3.5]nonan-2-yl]methyl]morpholin-4-yl]quinoline-8-carbonitrile]
- hERG IC20/TLR9 IC50 (hERG K+ channels): >144.9

Compound: C[C@@H]1CN(c2ccc(C#N)c3ncccc23)C[C@H](CN2CCN(c3ccc4c(n3)CN[C@H]4C)CC2)O1 [Example 63, 5-[(2R,6S)-2-methyl-6-[[4-[(5S)-5-methyl-6,7-dihydro-5H-pyrrolo[3,4-b]pyridin-2-yl]piperazin-1-yl]methyl]morpholin-4-yl]quinoline-8-carbonitrile]
- Clearance of Human microsome [1]: 6.15 mL/min/kg

Compound: [2H]c1nc2c(C#N)ccc(N3C[C@H](CN4CCN(c5cc6c(cn5)[C@@H](C)NCC6)CC4)O[C@H](C)C3)c2nc1[2H] [Example 95, 2,3-dideuterio-8-[(2R,6S)-2-methyl-6-[[4-[(8R)-8-methyl-5,6,7,8-tetrahydro-2,7-naphthyridin-3-yl]piperazin-1-yl]methyl]morpholin-4-yl]quinoxaline-5-carbonitrile]
- Clearance of Human microsome [1]: 7.13 mL/min/kg

Compound: C[C@@H]1CN(c2ccc(C#N)c3ncccc23)C[C@H](CN2CCN(c3ccccc3)CC2)O1 [ER-887258]
- safety window (hERG IC20/TLR7/8/9 IC50) (hERG K+ channels): much narrower safety window
- hERG IC20/TLR7 IC50 (hERG K+ channels): 8.1
- hERG IC20/TLR9 IC50 (hERG K+ channels): 0.3

Compound: [2H]c1ccc2c(N3C[C@H](CN4CCN(c5ccc6c(n5)CN[C@H]6C)CC4)O[C@H](C)C3)ccc(C#N)c2n1 [Example 99, 2-deuterio-5-[(2R,6S)-2-methyl-6-[[4-[(5S)-5-methyl-6,7-dihydro-5H-pyrrolo[3,4-b]pyridin-2-yl]piperazin-1-yl]methyl]morpholin-4-yl]quinoline-8-carbonitrile]
- Clearance of Human microsome [1]: 6.32 mL/min/kg

Compound: [2H]c1nc2c(C#N)ccc(N3C[C@H](CN4CCN(c5ccc6c(n5)CN[C@@H]6C)CC4)O[C@H](C)C3)c2nc1[2H] [Example 97, 2,3-dideuterio-8-[(2R,6S)-2-methyl-6-[[4-[(5R)-5-methyl-6,7-dihydro-5H-pyrrolo[3,4-b]pyridin-2-yl]piperazin-1-yl]methyl]morpholin-4-yl]quinoxaline-5-carbonitrile]
- Clearance of Human microsome [1]: 6.15 mL/min/kg

Compound: C[C@@H]1CN(c2ccc(C#N)c3ncccc23)C[C@H](CN2CCN(c3ccc(Cl)cc3)CC2)O1 [Example R2, 5-[(2S,6R)-2-[[4-(4-chlorophenyl)piperazin-1-yl]methyl]-6-methyl-morpholin-4-yl]quinoline-8-carbonitrile]
- safety window (hERG IC20/TLR7/8/9 IC50) (hERG K+ channels): much narrower safety window
- hERG IC20/TLR7 IC50 (hERG K+ channels): 1.3
- hERG IC20/TLR9 IC50 (hERG K+ channels): 0.04

Compound: [2H]c1ccc2c(N3C[C@H](CN4CCN(c5ccc6c(n5)CN[C@@H]6C)CC4)O[C@H](C)C3)ccc(C#N)c2n1 [Example 98, 2-deuterio-5-[(2R,6S)-2-methyl-6-[[4-[(5R)-5-methyl-6,7-dihydro-5H-pyrrolo[3,4-b]pyridin-2-yl]piperazin-1-yl]methyl]morpholin-4-yl]quinoline-8-carbonitrile]
- Clearance of Human microsome [1]: 8.02 mL/min/kg

Compound: COc1ccc(N2CCN(C[C@H]3CN(c4ccc(C#N)c5ncccc45)C[C@@H](C)O3)CC2)cc1 [Example R1, 5-[(2S,6R)-2-[[4-(4-methoxyphenyl)piperazin-1-yl]methyl]-6-methyl-morpholin-4-yl]quinoline-8-carbonitrile]
- safety window (hERG IC20/TLR7/8/9 IC50) (hERG K+ channels): much narrower safety window
- hERG IC20/TLR7 IC50 (hERG K+ channels): 9.3
- hERG IC20/TLR9 IC50 (hERG K+ channels): 0.1
